Reference: the SangsterLogP compilation

Experiment: method code SF, from PMID: 17665861
Conditions: pH 7.4

logD | SMILES
1.35 | O=C1Nc2ccccc2C12SC1C(=NNC1c1ccc([N+](=O)[O-])cc1)N2c1ccc(Br)cc1 (stereo not drawn)
1.45 | O=C1Nc2ccccc2C12SC1C(=NNC1c1ccc([N+](=O)[O-])cc1)N2c1ccccc1[N+](=O)[O-] (stereo not drawn)
1.17 | O=C1Nc2ccccc2C12SC1C(=NNC1c1ccccc1Cl)N2c1ccccc1[N+](=O)[O-] (stereo not drawn)
1.19 | COc1ccccc1N1C2=NNC(c3ccccc3)C2SC12C(=O)Nc1ccccc12 (stereo not drawn)
1.26 | COc1ccccc1N1C2=NNC(c3ccc(Cl)cc3)C2SC12C(=O)Nc1ccccc12 (stereo not drawn)
1.17 | O=C1Nc2ccccc2C12SC1C(=NNC1c1ccccc1[N+](=O)[O-])N2c1cccc2ccccc12 (stereo not drawn)
1.23 | COc1ccc(C2NN=C3C2SC2(C(=O)Nc4ccccc42)N3c2ccccc2OC)cc1 (stereo not drawn)
1.4 | COc1ccc(C2NN=C3C2SC2(C(=O)Nc4ccccc42)N3c2ccc(Br)cc2)cc1 (stereo not drawn)
1.21 | O=C1Nc2ccccc2C12SC1C(=NNC1c1ccccc1Cl)N2c1cccc2ccccc12 (stereo not drawn)
1.25 | O=C1Nc2ccccc2C12SC1C(=NNC1c1ccccc1O)N2c1ccccc1 (stereo not drawn)
1.2 | COc1ccc(C2NN=C3C2SC2(C(=O)Nc4ccccc42)N3c2cccc3ccccc23)cc1 (stereo not drawn)
1.31 | O=C1Nc2ccccc2C12SC1C(=NNC1c1ccc([N+](=O)[O-])cc1)N2c1ccc(Cl)cc1 (stereo not drawn)
1.14 | O=C1Nc2ccccc2C12SC1C(=NNC1c1ccccc1)N2c1ccccc1[N+](=O)[O-] (stereo not drawn)
1.35 | COc1ccc(C2NN=C3C2SC2(C(=O)Nc4ccccc42)N3c2ccccc2[N+](=O)[O-])cc1 (stereo not drawn)
1.41 | COc1ccc(C2NN=C3C2SC2(C(=O)Nc4ccccc42)N3c2ccc(Cl)cc2)cc1 (stereo not drawn)
1.38 | O=C1Nc2ccccc2C12SC1C(=NNC1c1ccccc1O)N2c1ccc(Br)cc1 (stereo not drawn)
1.1 | O=C1Nc2ccccc2C12SC1C(=NNC1c1ccccc1)N2c1ccc(Cl)cc1 (stereo not drawn)
1.45 | O=C1Nc2ccccc2C12SC1C(=NNC1c1ccccc1Cl)N2c1ccc(Br)cc1 (stereo not drawn)
1.14 | COc1ccccc1N1C2=NNC(c3ccccc3O)C2SC12C(=O)Nc1ccccc12 (stereo not drawn)
1.22 | O=C1Nc2ccccc2C12SC1C(=NNC1c1ccccc1Cl)N2c1ccccc1 (stereo not drawn)
1.24 | O=C1Nc2ccccc2C12SC1C(=NNC1c1ccccc1)N2c1ccc(Br)cc1 (stereo not drawn)
1.31 | O=C1Nc2ccccc2C12SC1C(=NNC1c1ccccc1Cl)N2c1ccc(Cl)cc1 (stereo not drawn)
1.11 | COc1ccccc1N1C2=NNC(c3ccccc3[N+](=O)[O-])C2SC12C(=O)Nc1ccccc12 (stereo not drawn)
